Assay results as given in patent publication US20240057606A1, “MOLECULES HAVING CERTAIN PESTICIDAL UTILITIES, AND INTERMEDIATES, COMPOSITIONS, AND PROCESSES RELATED THERETO” (priority 2020, published 2024).

Tests used:
Assay type in all cases: in vivo
[1] = test system: Beet Armyworm (Spodoptera exigua, "BAW"); assay: Bioassay on beet armyworm, 128-well diet tray assay; settings: 168 h, 50 μg/cm^2 of test compound on artificial diet, second instar larvae, 25° C., five to seven days, average of eight wells, read-out: BAW % Control (or Mortality) rating
Method: (§1) Bioassays on Beet Armyworm (Spodoptera exigua, “BAW”) and Cabbage Looper (Trichoplusia ni, “CL”)
(§2) Certain molecules disclosed in this document were tested against BAW and CL using procedures described in the following examples. In the reporting of the results, the “BAW & CL Rating Table” was used (See Table Section).
Bioassays on BAW were conducted using a 128-well diet tray assay. one to five second instar BAW larvae were placed in each well (3 mL) of the diet tray that had been previously filled with 1 mL of artificial diet to which 50 μg/cm^2 of the test compound (dissolved in 50 μL of 90:10 acetone-water mixture) had been applied (to each of eight wells) and then allowed to dry. Trays were covered with a clear self-adhesive cover and held at 25° C., 14:10 light-dark cycle for five to seven days. Percent mortality was recorded for the larvae in each well; activity in the eight wells was then averaged. The results are indicated in the table entitled “Table ABC: Biological Results” (See Table Section).

[2] = test system: Cabbage Looper (Trichoplusia ni, "CL"); assay: Bioassay on cabbage looper, 128-well diet tray assay; settings: 168 h, 50 μg/cm^2 of test compound on artificial diet, second instar larvae, 25° C., five to seven days, average of eight wells, read-out: CL % Control (or Mortality) rating
Method: as §1, §2
Bioassays on CL were conducted using a 128-well diet tray assay. one to five second instar CL larvae were placed in each well (3 mL) of the diet tray that had been previously filled with 1 mL of artificial diet to which 50 μg/cm^2 of the test compound (dissolved in 50 μL of 90:10 acetone-water mixture) had been applied (to each of eight wells) and then allowed to dry. Trays were covered with a clear self-adhesive cover and held at 25° C., 14:10 light-dark cycle for five to seven days. Percent mortality was recorded for the larvae in each well; activity in the eight wells was then averaged. The results are indicated in the table entitled “Table ABC: Biological Results” (See Table Section).

[3] = test system: Yellow Fever Mosquito (Aedes aegypti, "YFM"); assay: Bioassay on yellow fever mosquito larvae, 96-well plate assay; settings: 4000 ppm DMSO master solution diluted with 90:10 water:acetone; about 1 day-old larvae; room temperature; scored after 3 days
Method: Bioassays On Yellow Fever Mosquito (Aedes aegypti, “YFM”)
Certain molecules disclosed in this document were tested against YFM using procedures described in the following paragraph. In the reporting of the results, the “YFM Rating Table” was used (See Table Section).
Master plates containing 400 μg of a molecule dissolved in 100 μL of dimethyl sulfoxide (DMSO) (equivalent to a 4000 ppm solution) are used. A master plate of assembled molecules contains 15 μL per well. To this plate, 135 μL of a 90:10 water:acetone mixture is added to each well. A robot (Biomek® NXP Laboratory Automation Workstation) is programmed to dispense 15 μL aspirations from the master plate into an empty 96-well shallow plate (“daughter” plate). There are 6 reps (“daughter” plates) created per master. The created daughter plates are then immediately infested with YFM larvae.
The day before plates are to be treated, mosquito eggs are placed in Millipore water containing liver powder to begin hatching (4 g. into 400 mL). After the daughter plates are created using the robot, they are infested with 220 μL of the liver powder/larval mosquito mixture (about 1 day-old larvae). After plates are infested with mosquito larvae, a non-evaporative lid is used to cover the plate to reduce drying. Plates are held at room temperature for 3 days prior to grading. After 3 days, each well is observed and scored based on mortality.

Row | Structure (SMILES) | mortality at 50 µg/cm2 [1] [%] | mortality at 50 µg/cm2 [2] [%] | YFM % Control (or Mortality) rating [3]
1 | O=C(/N=C1\SCC(=O)N1c1ccc2c(c1)C(=O)OC2=O)Nc1ccc(-c2ncn(-c3ccc(OC(F)(F)F)cc3)n2)cc1F [F11, (Z)-1-(3-(1,3-Dioxo-1,3-dihydroisobenzofuran-5-yl)-4-oxothiazolidin-2-ylidene)-3-(2-fluoro-4-(1-(4-(trifluoromethoxy)phenyl)-1H-1,2,4-triazol-3-yl)phenyl)urea] | 0 | 50 to 100 | –
2 | O=C(/N=C1\SCC(=O)N1c1cccc2c1OCC2)Nc1ccc(-c2ncn(-c3ccc(OC(F)(F)F)cc3)n2)cc1F [F9, (Z)-1-(3-(2,3-Dihydrobenzofuran-7-yl)-4-oxothiazolidin-2-ylidene)-3-(2-fluoro-4-(1-(4-(trifluoromethoxy)phenyl)-1H-1,2,4-triazol-3-yl)phenyl)urea] | 50 to 100 | 50 to 100 | –
3 | Cc1cc(-c2ncn(-c3ccc(OC(F)(F)C(F)(F)F)cc3)n2)ccc1NC(=O)/N=C1\SCC(=O)N1c1ccc2c(ccn2C)c1 [F31, (Z)-1-(3-(1-Methyl-1H-indol-5-yl)-4-oxothiazolidin-2-ylidene)-3-(2-methyl-4-(1-(4-(perfluoroethoxy)phenyl)-1H-1,2,4-triazol-3-yl)phenyl)urea] | – | – | A (80-100)
4 | Cn1ccc2ccc(N3C(=O)CS/C3=N\C(=O)Nc3ccc(-c4ncn(-c5ccc(OC(F)(F)F)cc5)n4)cc3F)cc21 [F14, (Z)-1-(2-Fluoro-4-(1-(4-(trifluoromethoxy)phenyl)-1H-1,2,4-triazol-3-yl)phenyl)-3-(3-(1-methyl-1H-indol-6-yl)-4-oxothiazolidin-2-ylidene)urea] | 50 to 100 | 50 to 100 | A (80-100)
5 | O=C(/N=C1\SCC(=O)N1c1cccc2c1COC2=O)Nc1ccc(-c2ncn(-c3ccc(OC(F)(F)F)cc3)n2)cc1F [F19, (Z)-1-(2-Fluoro-4-(1-(4-(trifluoromethoxy)phenyl)-1H-1,2,4-triazol-3-yl)phenyl)-3-(4-oxo-3-(1-oxo-1,3-dihydroisobenzofuran-4-yl)thiazolidin-2-ylidene)urea] | 50 to 100 | 0 | D (No activity noticed in this bioassay)
6 | O=C(/N=C1\SCC(=O)N1c1cccc2occc12)Nc1ccc(-c2ncn(-c3ccc(OC(F)(F)F)cc3)n2)cc1F [F4, (Z)-1-(3-(Benzofuran-4-yl)-4-oxothiazolidin-2-ylidene)-3-(2-fluoro-4-(1-(4-(trifluoromethoxy)phenyl)-1H-1,2,4-triazol-3-yl)phenyl)urea] | 50 to 100 | 50 to 100 | –
7 | Cn1ccc2cc(N3C(=O)CS/C3=N\C(=O)Nc3ccc(-c4ncn(-c5ccc(C(F)(F)C(F)(F)F)cc5)n4)cc3F)ccc21 [F24, (Z)-1-(2-Fluoro-4-(1-(4-(perfluoroethyl)phenyl)-1H-1,2,4-triazol-3-yl)phenyl)-3-(3-(1-methyl-1H-indol-5-yl)-4-oxothiazolidin-2-ylidene)urea] | – | – | D (No activity noticed in this bioassay)
8 | O=C(/N=C1\SCC(=O)N1c1cccc2ocnc12)Nc1ccc(-c2ncn(-c3ccc(OC(F)(F)F)cc3)n2)cc1F [F7, (Z)-1-(3-(Benzo[d]oxazol-4-yl)-4-oxothiazolidin-2-ylidene)-3-(2-fluoro-4-(1-(4-(trifluoromethoxy)phenyl)-1H-1,2,4-triazol-3-yl)phenyl)urea] | 50 to 100 | 50 to 100 | –
9 | Cc1cc(-c2ncn(-c3ccc(OC(F)(F)C(F)(F)F)cc3)n2)ccc1NC(=O)/N=C1\SCC(=O)N1c1cccc2ccccc12 [F26, (Z)-1-(2-Methyl-4-(1-(4-(perfluoroethoxy)phenyl)-1H-1,2,4-triazol-3-yl)phenyl)-3-(3-(naphthalen-1-yl)-4-oxothiazolidin-2-ylidene)urea] | 50 to 100 | 50 to 100 | –
10 | Cc1cc(-c2ncn(-c3ccc(OC(F)(F)F)cc3)n2)ccc1NC(=O)/N=C1\SCC(=O)N1c1cc2c(cc1COCC(F)(F)F)OCO2 [F1] | 50 to 100 | 50 to 100 | –
11 | O=C(/N=C1\SCC(=O)N1c1cccc2c1CCC2)Nc1ccc(-c2ncn(-c3ccc(OC(F)(F)F)cc3)n2)cc1F [F10, (Z)-1-(3-(2,3-Dihydro-1H-inden-4-yl)-4-oxothiazolidin-2-ylidene)-3-(2-fluoro-4-(1-(4-(trifluoromethoxy)phenyl)-1H-1,2,4-triazol-3-yl)phenyl)urea] | 50 to 100 | 50 to 100 | –
12 | Cc1cc(-c2ncn(-c3ccc(OC(F)(F)C(F)(F)F)cc3)n2)ccc1NC(=O)/N=C1\SCC(=O)N1c1cccc2c1CCO2 [F25, (Z)-1-(3-(2,3-Dihydrobenzofuran-4-yl)-4-oxothiazolidin-2-ylidene)-3-(2-methyl-4-(1-(4-(perfluoroethoxy)phenyl)-1H-1,2,4-triazol-3-yl)phenyl)urea] | 50 to 100 | 50 to 100 | –
13 | O=C(/N=C1\SCC(=O)N1c1cccc2ncccc12)Nc1ccc(-c2ncn(-c3ccc(C(F)(F)C(F)(F)F)cc3)n2)cc1F [F34, (Z)-1-(2-Fluoro-4-(1-(4-(perfluoroethyl)phenyl)-1H-1,2,4-triazol-3-yl)phenyl)-3-(4-oxo-3-(quinolin-5-yl)thiazolidin-2-ylidene)urea] | – | – | A (80-100)
14 | O=C(/N=C1\SCC(=O)N1c1cccc2c1COC2)Nc1ccc(-c2ncn(-c3ccc(OC(F)(F)F)cc3)n2)cc1F [F8, (Z)-1-(3-(1,3-Dihydroisobenzofuran-4-yl)-4-oxothiazolidin-2-ylidene)-3-(2-fluoro-4-(1-(4-(trifluoromethoxy)phenyl)-1H-1,2,4-triazol-3-yl)phenyl)urea] | 50 to 100 | 50 to 100 | –
15 | O=C(/N=C1\SCC(=O)N1c1cc2c(cc1COCC(F)(F)F)OCO2)Nc1ccc(-c2ncn(-c3ccc(OC(F)(F)F)cc3)n2)cc1F [F2, (Z)-1-(2-Fluoro-4-(1-(4-(trifluoromethoxy)phenyl)-1H-1,2,4-triazol-3-yl)phenyl)-3-(4-oxo-3-(6-((2,2,2-trifluoroethoxy)methyl)benzo[d][1,3]dioxol-5-yl)thiazolidin-2-ylidene)urea] | 50 to 100 | 50 to 100 | –
16 | O=C(/N=C1\SCC(=O)N1c1cc2c(cc1COCC(F)(F)F)OCO2)Nc1ccc(-c2ncn(-c3ccc(S(F)(F)(F)(F)F)cc3)n2)cc1F [F3, (Z)-1-(2-Fluoro-4-(1-(4-(pentafluoro-λ^6-sulfaneyl)phenyl)-1H-1,2,4-triazol-3-yl)phenyl)-3-(4-oxo-3-(6-((2,2,2-trifluoroethoxy)methyl)benzo[d][1,3]dioxol-5-yl)thiazolidin-2-ylidene)urea] | 50 to 100 | 50 to 100 | –
17 | Cc1cc(-c2ncn(-c3ccc(OC(F)(F)C(F)(F)F)cc3)n2)ccc1NC(=O)/N=C1\SCC(=O)N1c1cccc2c1OCC2 [F28, (Z)-1-(3-(2,3-Dihydrobenzofuran-7-yl)-4-oxothiazolidin-2-ylidene)-3-(2-methyl-4-(1-(4-(perfluoroethoxy)phenyl)-1H-1,2,4-triazol-3-yl)phenyl)urea] | – | – | A (80-100)
18 | Cn1ccc2c(N3C(=O)CS/C3=N\C(=O)Nc3ccc(-c4ncn(-c5ccc(C(F)(F)C(F)(F)F)cc5)n4)cc3F)cccc21 [F30, (Z)-1-(2-Fluoro-4-(1-(4-(perfluoroethyl)phenyl)-1H-1,2,4-triazol-3-yl)phenyl)-3-(3-(1-methyl-1H-indol-4-yl)-4-oxothiazolidin-2-ylidene)urea] | – | – | A (80-100)
19 | O=C(/N=C1\SCC(=O)N1c1cccc2ccoc12)Nc1ccc(-c2ncn(-c3ccc(OC(F)(F)F)cc3)n2)cc1F [F5, (Z)-1-(3-(Benzofuran-7-yl)-4-oxothiazolidin-2-ylidene)-3-(2-fluoro-4-(1-(4-(trifluoromethoxy)phenyl)-1H-1,2,4-triazol-3-yl)phenyl)urea] | 50 to 100 | 50 to 100 | –
